Experimental data: ChEMBL document CHEMBL5260842 (J Med Chem, 2019)
pEC50, pIC50: −log10 of the molar value. The source made the active and inactive calls. The rule behind the calls is not given here.

Key:
CWR22R [1] = assay: Potency index, ratio of enzalutamide IC50 to test compound IC50 for cytotoxicity against AR-positive human 22Rv1 cells assessed as inhibition of cell growth incubated for 7 days in regular culture medium by WST-8 assay; type: functional; conditions: time 7 day
[2] = target: T1, von Hippel-Lindau disease tumor suppressor/Androgen receptor (Homo sapiens, UniProt P10275+P40337); assay: Protac activity at VHL/AR in human VCaP cells assessed as induction of protein degradation at 10 nM measured after 24 hrs by Western blot analysis relative to control; type: cell-based
Target sequence in this assay (P10275 whole entry, looked up): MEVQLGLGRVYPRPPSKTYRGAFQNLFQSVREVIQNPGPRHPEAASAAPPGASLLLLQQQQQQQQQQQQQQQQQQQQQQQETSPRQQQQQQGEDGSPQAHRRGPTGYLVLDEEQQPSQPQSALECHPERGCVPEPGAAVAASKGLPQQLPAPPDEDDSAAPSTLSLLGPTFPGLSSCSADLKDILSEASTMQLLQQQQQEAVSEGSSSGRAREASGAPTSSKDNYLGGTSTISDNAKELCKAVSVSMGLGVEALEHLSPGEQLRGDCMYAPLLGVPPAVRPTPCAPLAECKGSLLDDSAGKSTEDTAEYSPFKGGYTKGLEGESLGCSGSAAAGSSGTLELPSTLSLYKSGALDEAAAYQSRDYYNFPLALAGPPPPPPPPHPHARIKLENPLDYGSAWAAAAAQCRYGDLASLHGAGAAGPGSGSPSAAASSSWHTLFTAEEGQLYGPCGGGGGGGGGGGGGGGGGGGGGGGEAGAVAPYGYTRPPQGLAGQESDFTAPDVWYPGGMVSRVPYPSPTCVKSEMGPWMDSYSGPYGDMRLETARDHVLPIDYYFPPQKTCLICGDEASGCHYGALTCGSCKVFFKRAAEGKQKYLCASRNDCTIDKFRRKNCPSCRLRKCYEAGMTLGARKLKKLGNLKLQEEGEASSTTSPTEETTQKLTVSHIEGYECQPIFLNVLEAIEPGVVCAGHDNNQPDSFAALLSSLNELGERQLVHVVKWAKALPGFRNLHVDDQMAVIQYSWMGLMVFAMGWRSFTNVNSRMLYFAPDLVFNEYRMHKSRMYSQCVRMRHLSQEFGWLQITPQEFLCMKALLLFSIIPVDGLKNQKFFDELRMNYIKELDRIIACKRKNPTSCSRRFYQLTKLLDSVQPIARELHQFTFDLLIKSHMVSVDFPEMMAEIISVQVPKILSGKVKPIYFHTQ
Target sequence in this assay (P40337 whole entry, looked up): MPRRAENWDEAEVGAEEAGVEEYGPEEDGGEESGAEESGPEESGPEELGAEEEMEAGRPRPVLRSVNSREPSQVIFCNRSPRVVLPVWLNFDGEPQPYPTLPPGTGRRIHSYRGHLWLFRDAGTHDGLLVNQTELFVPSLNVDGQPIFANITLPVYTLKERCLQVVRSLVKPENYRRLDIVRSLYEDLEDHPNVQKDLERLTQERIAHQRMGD

LNCaP [3] = assay: Downregulation of PSA mRNA expression in human LNCaP cells measured after 24 hrs by qRT-PCR analysis; type: functional, cell-based; conditions: dose 0.1-10000 nM
VCaP [4] = assay: Downregulation of ERG gene expression in human VCaP cells measured after 24 hrs by charcoal stripped serum based qRT-PCR analysis; type: functional, cell-based; conditions: dose 1-1000 nM
VCaP [5] = assay: Potency index, ratio of enzalutamide IC50 to test compound IC50 for cytotoxicity against AR-positive human VCaP cells assessed as inhibition of cell growth incubated for 7 days in presence of AR agonist, R1881 in charcoal stripped medium by WST-8 assay; type: functional; conditions: time 7 day
[6] = test system: von Hippel-Lindau disease tumor suppressor/Androgen receptor (Homo sapiens); assay: In vivo protac activity at VHL/AR in human VCaP cells xenografted SCID mouse assessed as reduction in AR protein level in tumor at 50 mg/kg, ip administered as single dose measured after 3 to 48 hrs Western blot analysis; conditions: time 3-48 hrs
[7] = Downregulation of TMPRSS2 mRNA expression in human VCaP cells at 10 nM measured after 24 hrs by regular serum based qRT-PCR analysis relative to control; type: functional
[8] = target: T1, von Hippel-Lindau disease tumor suppressor/Androgen receptor; assay: (§1) Protac activity at VHL/AR in AR-positive human LNCaP cells assessed as induction of androgen receptor degradation at 100 nM preincubated with proteasome inhibitor, MG132 for 2 hrs followed by compound addition and measured after 6 hrs by Western blot analysis; type: cell-based
Target sequence in this assay (P10275 whole entry, looked up): as the sequence (P10275 whole entry, looked up) above
Target sequence in this assay (P40337 whole entry, looked up): as the sequence (P40337 whole entry, looked up) above

[9] = Downregulation of PSA mRNA expression in human VCaP cells at 10 nM measured after 24 hrs by regular serum based qRT-PCR analysis relative to control; type: functional
VCaP [10] = assay: Downregulation of FKBP5 mRNA expression in human VCaP cells measured after 24 hrs by charcoal stripped serum based qRT-PCR analysis; type: functional, cell-based; conditions: dose 1-1000 nM
[11] = target: T1, von Hippel-Lindau disease tumor suppressor/Androgen receptor; assay: Protac activity at VHL/AR in AR-positive human VCaP cells assessed as reduction in protein level at 100 nM measured after 2 to 4 hrs by Western blot analysis; type: cell-based; conditions: time 2-4 hrs
Target sequence in this assay (P10275 whole entry, looked up): as the sequence (P10275 whole entry, looked up) above
Target sequence in this assay (P40337 whole entry, looked up): as the sequence (P40337 whole entry, looked up) above

CWR22R [12] = assay: Cytotoxicity against AR-positive human 22Rv1 cells assessed as inhibition of cell growth incubated for 7 days in regular culture medium by WST-8 assay; type: functional, cell-based; conditions: 22Rv1, 168 h
VCaP [13] = assay: Cytotoxicity against AR-positive human VCaP cells assessed as inhibition of cell growth incubated for 7 days in presence of AR agonist, R1881 in charcoal stripped medium by WST-8 assay; type: functional, cell-based; conditions: 168 h
VCaP [14] = assay: Downregulation of PSA mRNA expression in human VCaP cells measured after 24 hrs by charcoal stripped serum based qRT-PCR analysis; type: functional, cell-based; conditions: dose 1-1000 nM
[15] = target: T1, von Hippel-Lindau disease tumor suppressor/Androgen receptor; assay: as §1, with “N-((1r,3r)-3-(3-chloro-4-cyanophenoxy)-2,2,4,4-tetramethylcyclobutyl)-1-(2-hydroxyethyl)-1H-pyrazole-4-carboxamide” for “proteasome inhibitor, MG132”; type: cell-based
Target sequence in this assay (P10275 whole entry, looked up): as the sequence (P10275 whole entry, looked up) above
Target sequence in this assay (P40337 whole entry, looked up): as the sequence (P40337 whole entry, looked up) above

LNCaP [16] = assay: Cytotoxicity against AR-positive human LNCaP cells assessed as inhibition of cell growth incubated for 7 days in presence of AR agonist, R1881 in charcoal stripped medium by WST-8 assay; type: functional, cell-based; conditions: 168 h
[17] = target: T1, von Hippel-Lindau disease tumor suppressor/Androgen receptor; assay: (§2) Protac activity at VHL/AR in AR-positive human VCaP cells assessed as induction of androgen receptor degradation at 100 nM preincubated with proteasome inhibitor, MG132 for 2 hrs followed by compound addition and measured after 6 hrs by Western blot analysis; type: cell-based
Target sequence in this assay (P10275 whole entry, looked up): as the sequence (P10275 whole entry, looked up) above
Target sequence in this assay (P40337 whole entry, looked up): as the sequence (P40337 whole entry, looked up) above

[18] = target: T1, von Hippel-Lindau disease tumor suppressor/Androgen receptor; assay: Protac activity at VHL/AR in AR-positive human LNCaP cells assessed as induction of androgen receptor degradation at 0.1 uM incubated for 6 hrs by Western blot analysis (reference value: 0%); type: cell-based
Target sequence in this assay (P10275 whole entry, looked up): as the sequence (P10275 whole entry, looked up) above
Target sequence in this assay (P40337 whole entry, looked up): as the sequence (P40337 whole entry, looked up) above

[19] = target: T1, von Hippel-Lindau disease tumor suppressor/Androgen receptor; assay: Protac activity at VHL/AR in AR-positive human LNCaP cells assessed as induction of androgen receptor degradation at 100 nM preincubated with NEDD8 activating E1 enzyme inhibitor, MLN4924 for 2 hrs followed by compound addition and measured after 6 hrs by Western blot analysis; type: cell-based
LNCaP [20] = assay: Downregulation of TMPRSS2 mRNA expression in human LNCaP cells measured after 24 hrs by qRT-PCR analysis; type: functional, cell-based; conditions: dose 0.1-10000 nM
[21] = target: T1, von Hippel-Lindau disease tumor suppressor/Androgen receptor; assay: In vivo protac activity at VHL/AR in human VCaP cells xenografted SCID mouse assessed as reduction in PSA protein level in tumor at 50 mg/kg, ip administered as single dose measured after 3 to 48 hrs Western blot analysis; type: functional, organism-based; conditions: time 3-48 hrs
[22] = target: T1, von Hippel-Lindau disease tumor suppressor/Androgen receptor; assay: Protac activity at VHL/AR in AR-positive human LNCaP cells assessed as reduction in protein level at 100 nM measured after 2 to 4 hrs by Western blot analysis; type: cell-based; conditions: time 2-4 hrs
VCaP [23] = assay: Downregulation of TMPRSS2 mRNA expression in human VCaP cells measured after 24 hrs by charcoal stripped serum based qRT-PCR analysis; type: functional, cell-based; conditions: dose 1-1000 nM
[24] = target: T1, von Hippel-Lindau disease tumor suppressor/Androgen receptor; assay: Protac activity at VHL/AR in human VCaP cells assessed as induction of protein degradation measured after 24 hrs by Western blot analysis; type: cell-based
Target sequence in this assay (P10275 whole entry): as the sequence (P10275 whole entry, looked up) above
Target sequence in this assay (P40337 whole entry): as the sequence (P40337 whole entry, looked up) above

[25] = target: T1, von Hippel-Lindau disease tumor suppressor/Androgen receptor; assay: Protac activity at VHL/AR in AR-positive human VCaP cells assessed as induction of androgen receptor degradation at 100 nM preincubated with NEDD8 activating E1 enzyme inhibitor, MLN4924 for 2 hrs followed by compound addition and measured after 6 hrs by Western blot analysis; type: cell-based
[26] = Downregulation of TMPRSS2 mRNA expression in human LNCaP cells at 10 nM measured after 24 hrs by qRT-PCR analysis relative to control; type: functional
[27] = target: T1, von Hippel-Lindau disease tumor suppressor/Androgen receptor; assay: as §2, with “N-((1r,3r)-3-(3-chloro-4-cyanophenoxy)-2,2,4,4-tetramethylcyclobutyl)-1-(2-hydroxyethyl)-1H-pyrazole-4-carboxamide” for “proteasome inhibitor, MG132”; type: cell-based
VCaP [28] = assay: Downregulation of ERG gene expression in human VCaP cells measured after 24 hrs by regular serum based qRT-PCR analysis; type: functional, cell-based; conditions: dose 1-1000 nM
[29] = target: T1, von Hippel-Lindau disease tumor suppressor/Androgen receptor; assay: as §1, with “VHL ligand, (2S,4R)-4-hydroxy-1-((R)-3-methyl-2-(3-methylisoxazol-5-yl)butanoyl)-N-((S)-3-(methylamino)-1-(4-(4-methylthiazol-5-yl)phenyl)-3-oxopropyl)pyrrolidine-2-carboxamide” for “proteasome inhibitor, MG132”; type: cell-based
VCaP [30] = assay: Downregulation of TMPRSS2 mRNA expression in human VCaP cells measured after 24 hrs by regular serum based qRT-PCR analysis; type: functional, cell-based; conditions: dose 1-1000 nM
[31] = target: T1, von Hippel-Lindau disease tumor suppressor/Androgen receptor; assay: as §2, with “VHL ligand, (2S,4R)-4-hydroxy-1-((R)-3-methyl-2-(3-methylisoxazol-5-yl)butanoyl)-N-((S)-3-(methylamino)-1-(4-(4-methylthiazol-5-yl)phenyl)-3-oxopropyl)pyrrolidine-2-carboxamide” for “proteasome inhibitor, MG132”; type: cell-based
LNCaP [32] = assay: Downregulation of FKBP5 mRNA expression in human LNCaP cells measured after 24 hrs by qRT-PCR analysis; type: functional, cell-based; conditions: dose 0.1-10000 nM
VCaP [33] = assay: Downregulation of FKBP5 mRNA expression in human VCaP cells measured after 24 hrs by regular serum based qRT-PCR analysis; type: functional, cell-based; conditions: dose 1-1000 nM
[34] = Downregulation of PSA mRNA expression in human LNCaP cells at 10 nM measured after 24 hrs by qRT-PCR analysis relative to control; type: functional
LNCaP [35] = assay: Potency index, ratio of enzalutamide IC50 to test compound IC50 for cytotoxicity against AR-positive human LNCaP cells assessed as inhibition of cell growth incubated for 7 days in presence of AR agonist, R1881 in charcoal stripped medium by WST-8 assay; type: functional; conditions: time 7 day
VCaP [36] = assay: Downregulation of PSA mRNA expression in human VCaP cells measured after 24 hrs by regular serum based qRT-PCR analysis; type: functional, cell-based; conditions: dose 1-1000 nM
[37] = Downregulation of TMPRSS2 mRNA expression in human VCaP cells at 10 nM measured after 24 hrs by charcoal stripped serum based qRT-PCR analysis relative to control; type: functional
[38] = target: T1, von Hippel-Lindau disease tumor suppressor/Androgen receptor; assay: Protac activity at VHL/AR in human LNCaP cells assessed as induction of protein degradation measured after 24 hrs by Western blot analysis; type: cell-based
Target sequence in this assay (P10275 whole entry): as the sequence (P10275 whole entry, looked up) above
Target sequence in this assay (P40337 whole entry): as the sequence (P40337 whole entry, looked up) above

[39] = target: T1, von Hippel-Lindau disease tumor suppressor/Androgen receptor; assay: Protac activity at VHL/AR in human 22Rv1 cells assessed as induction of protein degradation measured after 24 hrs by Western blot analysis; type: cell-based
Target sequence in this assay (P10275 whole entry): as the sequence (P10275 whole entry, looked up) above
Target sequence in this assay (P40337 whole entry): as the sequence (P40337 whole entry, looked up) above

[40] = Downregulation of PSA mRNA expression in human VCaP cells at 10 nM measured after 24 hrs by charcoal stripped serum based qRT-PCR analysis relative to control; type: functional
[41] = target: T1, von Hippel-Lindau disease tumor suppressor/Androgen receptor; assay: Protac activity at VHL/AR in AR-positive human LNCaP cells assessed as induction of androgen receptor degradation at 0.01 uM incubated for 6 hrs by Western blot analysis (reference value: 0%); type: cell-based

Cc1ncsc1-c1ccc([C@H](CC(=O)N2CCC(N3CCC(C#Cc4ccc(C(=O)N[C@H]5C(C)(C)[C@H](Oc6ccc(C#N)c(Cl)c6)C5(C)C)cc4)CC3)CC2)NC(=O)[C@@H]2C[C@@H](O)CN2C(=O)[C@@H](NC(=O)C2(F)CC2)C(C)(C)C)cc1
Ratio IC50 (CWR22R [1]): >100 | Activity [2]: > 95% | Activity (LNCaP [3]): Dose-Dependent Effect | Activity (VCaP [4]): Dose-Dependent Effect | Ratio IC50 (VCaP [5]): >100 | Activity [6]: Active | Activity [7]: >50% | Activity [8]: inactive | Activity [9]: >50% | Activity (VCaP [10]): Dose-Dependent Effect | Activity [11]: Active | pIC50 (CWR22R [12]): 6.74 | pIC50 (VCaP [13]): 9.47 | Activity (VCaP [14]): Dose-Dependent Effect | Activity [15]: inactive | pIC50 (LNCaP [16]): 9.60 | Activity [17]: inactive | Activity [18]: 99% | Activity [19]: inactive | Activity (LNCaP [20]): Dose-Dependent Effect | Activity [21]: Active | Activity [22]: Active | Activity (VCaP [23]): Dose-Dependent Effect | pEC50 [24]: 9.12 | Activity [25]: inactive | Activity [26]: >50% | Activity [27]: inactive | Activity (VCaP [28]): Dose-Dependent Effect | Activity [29]: inactive | Activity (VCaP [30]): Dose-Dependent Effect | Activity [31]: inactive | Activity (LNCaP [32]): Dose-Dependent Effect | Activity (VCaP [33]): Dose-Dependent Effect | Activity [34]: >50% | Ratio IC50 (LNCaP [35]): >100 | Activity (VCaP [36]): Dose-Dependent Effect | Activity [37]: >50% | pEC50 [38]: 9.07 | pEC50 [39]: 7.98 | Activity [40]: >50% | Activity [41]: 89%
